We go through 13 molecules from ChEMBL document CHEMBL4190342, “Identifying novel factor XIIa inhibitors with PCA-GA-SVM developed vHTS models” (Eur J Med Chem, 2017).

The structures appear in SMILES notation. Bounds are passed on as bounds.

The target of test [1] is T1, Coagulation factor XII (Homo sapiens, UniProt P00748).
T1 sequence (P00748 whole entry): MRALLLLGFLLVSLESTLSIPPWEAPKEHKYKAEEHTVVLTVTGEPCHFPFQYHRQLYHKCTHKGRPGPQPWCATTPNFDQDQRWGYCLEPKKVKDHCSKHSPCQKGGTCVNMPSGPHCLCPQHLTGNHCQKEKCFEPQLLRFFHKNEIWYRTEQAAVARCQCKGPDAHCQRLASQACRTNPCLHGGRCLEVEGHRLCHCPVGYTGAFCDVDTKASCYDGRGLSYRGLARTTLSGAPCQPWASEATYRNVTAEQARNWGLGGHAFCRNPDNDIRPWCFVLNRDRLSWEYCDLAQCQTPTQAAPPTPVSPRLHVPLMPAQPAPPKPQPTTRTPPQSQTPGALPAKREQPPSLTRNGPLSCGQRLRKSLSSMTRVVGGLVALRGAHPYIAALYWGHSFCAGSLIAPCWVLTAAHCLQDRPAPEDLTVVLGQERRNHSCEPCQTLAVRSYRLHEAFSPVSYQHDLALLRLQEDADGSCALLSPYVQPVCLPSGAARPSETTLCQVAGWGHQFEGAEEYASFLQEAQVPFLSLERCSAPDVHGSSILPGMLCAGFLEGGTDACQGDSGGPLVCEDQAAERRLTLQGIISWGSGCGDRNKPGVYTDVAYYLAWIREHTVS
Put plainly: Inhibition of human factor 12a using Boc-Gly-Gln-Arg-AMC substrate incubated for 1 hr by fluorescence assay.

Test [2] deals with T1, Coagulation factor XII. Put plainly: Inhibition of human factor 12a using Boc-Gly-Gln-Arg-AMC substrate incubated for 1 hr in presence of 0% Tween20 surfactant by fluorescence assay.
The target of test [3] is T1, Coagulation factor XII. Put plainly: Inhibition of human factor 12a using Boc-Gly-Gln-Arg-AMC substrate incubated for 1 hr in presence of 0.01% Tween20 surfactant by fluorescence assay.
The target of test [4] is T1, Coagulation factor XII. Put plainly: Inhibition of human factor 12a using Boc-Gly-Gln-Arg-AMC substrate incubated for 1 hr in presence of 0.02% Tween20 surfactant by fluorescence assay.

A word on the IC50: it is the concentration that inhibits the measured activity by half. As for `COc1cc(OC)cc(C(=O)n2nnc3ccccc32)c1`, the IC50 at Coagulation factor XII [1] came out at 25.4 µM.
Consider `COc1ccccc1C(=O)n1nnc2ccccc21`, for which it took 7.21 µM to reach half-maximal inhibition against Coagulation factor XII [1] (IC50).
Consider `COc1ccccc1C(=O)n1nc(-c2cccnc2)nc1N`, for which the IC50 on Coagulation factor XII [1] was 0.68 µM; at Coagulation factor XII [2], 1.85 µM; at Coagulation factor XII [3], 2.63 µM; on Coagulation factor XII [4], 2.43 µM.
Take `COc1ccc(/C=C(\C#N)c2nc3ccccc3[nH]2)cc1OC`: the IC50 against Coagulation factor XII [1] is above 50 µM.
Molecule `O=C(c1ccc(Br)cc1)n1nnc2ccccc21` gave an IC50 against Coagulation factor XII [1] of 0.6 µM.
Take `Cc1ccc2nc(/C(C#N)=C/c3ccccc3)[nH]c2c1`: the concentration for half-maximal inhibition (IC50) on Coagulation factor XII [1] was above 50 µM.
In the case of `Cc1ccc(/C=C(\C#N)c2nc3ccccc3[nH]2)cc1`, the IC50 on Coagulation factor XII [1] was above 50 µM.
At Coagulation factor XII [1], `N#C/C(=C\c1ccccc1)c1nc2ccccc2[nH]1` had a concentration for half-maximal inhibition (IC50) above 50 µM.
The molecule `O=C(c1ccco1)n1nnc2ccccc21` returned an IC50 at Coagulation factor XII [1] of 34.1 µM.
On the same count and under the same terms, next, `COC(=O)c1ccc(/C=C(\C#N)c2nc3ccc(C)cc3[nH]2)cc1`: above 50 µM.
At Coagulation factor XII [1], `COc1ccc(/C=C(\C#N)c2nc3ccc(C)cc3[nH]2)cc1` registered an IC50 above 50 µM.
The molecule `O=C(c1ccc(Cl)cc1)n1nnc2ccccc21` yielded an IC50 against Coagulation factor XII [1] of 31.7 µM.
`COc1cccc(/C=C(\C#N)c2nc3ccccc3[nH]2)c1`: the IC50 on Coagulation factor XII [1] was above 50 µM.
